Measurements from PubChem BioAssay (NCI).
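Tested at 5 concentrations; 48 h exposure; 96-well plates; endpoints linearly interpolated, else capped at highest concentration. TGI denotes the concentration required for complete inhibition of growth.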

How the values were obtained:
Assay in all cases: NCI anticancer screen, dose series, 48 h
HL-60(TB) leukemia = test system: HL-60(TB) leukemia
OVCAR-4 ovarian = test system: OVCAR-4 ovarian
SK-MEL-28 melanoma = test system: SK-MEL-28 melanoma
NCI-H460 lung = test system: NCI-H460 lung
SN12C renal = test system: SN12C renal
HCT-15 colon = test system: HCT-15 colon
U251 CNS = test system: U251 CNS
SK-MEL-5 melanoma = test system: SK-MEL-5 melanoma
SK-MEL-2 melanoma = test system: SK-MEL-2 melanoma
SNB-75 CNS = test system: SNB-75 CNS
M14 melanoma = test system: M14 melanoma
HCT-116 colon = test system: HCT-116 colon
UACC-257 melanoma = test system: UACC-257 melanoma
SW-620 colon = test system: SW-620 colon
ACHN renal = test system: ACHN renal
HOP-62 NSCLC = test system: HOP-62 NSCLC
NCI-H226 lung = test system: NCI-H226 lung
MDA-N = test system: MDA-N
OVCAR-3 ovarian = test system: OVCAR-3 ovarian
NCI/ADR-RES ovarian = test system: NCI/ADR-RES ovarian

| SMILES | TGI (HL-60(TB) leukemia) [µM] | TGI (OVCAR-4 ovarian) [µM] | TGI (SK-MEL-28 melanoma) [µM] | TGI (NCI-H460 lung) [µM] | TGI (SN12C renal) [µM] | TGI (HCT-15 colon) [µM] | TGI (U251 CNS) [µM] | TGI (SK-MEL-5 melanoma) [µM] | TGI (SK-MEL-2 melanoma) [µM] | TGI (SNB-75 CNS) [µM] | TGI (M14 melanoma) [µM] | TGI (HCT-116 colon) [µM] | TGI (UACC-257 melanoma) [µM] | TGI (SW-620 colon) [µM] | TGI (ACHN renal) [µM] | TGI (HOP-62 NSCLC) [µM] | TGI (NCI-H226 lung) [µM] | TGI (MDA-N) [µM] | TGI (OVCAR-3 ovarian) [µM] | TGI (NCI/ADR-RES ovarian) [µM] |
| --- | --- | --- | --- | --- | --- | --- | --- | --- | --- | --- | --- | --- | --- | --- | --- | --- | --- | --- | --- | --- |
| CCN(CC)CC(=O)Nc1ccc2c(c1)C(=O)c1ccc(NC(=O)CN(CC)CC)cc1C2=O | 44.5 | > 100 | > 100 | 31.5 | > 100 | > 100 | 47 | 48.9 | > 100 | 89.6 | 36.8 | 30.5 | 97.4 | 69.8 | 73.3 | 74.1 | – | – | – | – |
| CN(C)/C=C/c1c2c(nc3ccccc13)C(=O)c1ccccc1C2=O | – | 5.42 | 0.55 | 1.4 | 2.84 | 2.71 | 4.66 | 0.536 | 6.27 | – | 1.92 | 3.26 | 1.77 | 5.04 | 3.44 | 1.32 | 5.21 | 0.957 | 0.622 | 5.6 |
| COC1=CC(=O)NCCN1 | 41 | > 100 | > 100 | 85.9 | > 100 | > 100 | > 100 | > 100 | > 100 | > 100 | > 100 | > 100 | > 100 | 50.9 | > 100 | > 100 | > 100 | – | > 100 | – |
| COc1cccc(C=C2N=C(C)N(n3c(-c4ccccc4)nc4ccccc4c3=O)C2=O)c1 | > 100 | – | > 100 | > 100 | > 100 | > 100 | – | > 100 | – | > 100 | > 100 | > 100 | > 100 | > 100 | > 100 | > 100 | > 100 | > 100 | – | – |
| CC1=C/C(=C2/N=C(N(C)C)SS2)C(C)=N1 | > 100 | > 100 | > 100 | > 100 | > 100 | > 100 | > 100 | – | – | > 100 | > 100 | > 100 | > 100 | > 100 | > 100 | > 100 | > 100 | – | > 100 | – |
| Cc1nn(-c2ccccc2)c2nc3ccc(Cl)cc3c(-c3ccccc3)c12 | – | > 100 | > 100 | > 100 | > 100 | > 100 | > 100 | > 100 | > 100 | > 100 | > 100 | > 100 | – | > 100 | > 100 | > 100 | > 100 | > 100 | > 100 | > 100 |
| CCCCc1c2c(nc3c1CC/C(=C\c1ccc([N+](=O)[O-])cc1)C3=O)CCCC2 | – | – | 3.12 | 2.92 | 3.34 | 1.16 | 2.96 | – | – | 20.6 | 3.34 | 3.22 | 4.6 | 3.53 | 3.28 | 3.29 | 6.5 | – | 3.14 | – |
| CN(C)Cc1cc(C(=O)/C=C/c2ccc(F)cc2)cc(CN(C)C)c1O | 35.4 | > 100 | > 100 | 22.3 | > 100 | 30.3 | > 100 | 35.5 | – | 87.2 | 27.4 | 27 | 31 | 75.5 | 78.3 | 58.5 | > 100 | – | 50.9 | 86.2 |
| Cc1c(-c2ccc(O)c(O)c2)oc(=O)c2c(O)cccc12 | > 100 | 40.4 | – | 41 | 19.5 | 17.7 | 26.1 | 24.8 | 28 | 76 | 20.7 | 20 | 44.3 | 61.2 | > 100 | 34.5 | – | – | 66.1 | 29.7 |
| CC(C)(O)CCc1ccc(O)c2c(=O)c3c(O)c4c(cc3oc12)O[C@H]1OC=C[C@@]41O | – | 0.222 | 1.38 | 20.7 | > 100 | 14.6 | 0.0396 | – | < 0.01 | 10.1 | – | 4.52 | 0.291 | 27.8 | < 0.01 | 2.43 | 0.162 | 0.0142 | < 0.01 | 0.298 |
| Clc1cccc2c1OCC1C(c3ccccc3)=NN(c3ccccc3)C21 (stereo not given) | > 100 | – | > 100 | > 100 | – | – | > 100 | 90.7 | > 100 | > 100 | – | > 100 | > 100 | > 100 | > 100 | > 100 | – | – | > 100 | – |
| O=S(=O)(O)c1ccccc1N=Nc1ccc(N=Nc2c(O)ccc3ccccc23)c(S(=O)(=O)O)c1 | – | > 100 | > 100 | – | > 100 | > 100 | > 100 | > 100 | > 100 | > 100 | > 100 | > 100 | > 100 | > 100 | > 100 | > 100 | > 100 | – | > 100 | > 100 |
| CCOC(=O)C1=C(C)NC(C)=C(C(=O)OCC)C1c1ccc(C)cc1 | – | > 100 | > 100 | 48 | 80.5 | > 100 | > 100 | 35.3 | 98.4 | > 100 | > 100 | > 100 | > 100 | > 100 | > 100 | > 100 | > 100 | > 100 | 87.7 | – |
